Data from patent US20080050755A1, “Method for screening for chemotherapeutic treatments for cancer” (priority 2000, published 2008).

Test system: Tcf/Lef reporter activity (endogenous β-catenin) in 293T cells
Test: Tcf/Lef reporter assay (pTOPFLASH/pFOPFLASH) in adriamycin-treated 293T cells
Format: cell-based
Details: 293T cells treated with 1 µg/ml adriamycin 8 hours after transfection for 16 hours; FIG. 6E
Text: FIGS. 6A, 6B, 6C, and 6E illustrate that Siah-1 mediates p53-induced degradation of β-catenin. […] 293T cells were transiently co-transfected with an internal control (pEGFP) and the indicated plasmids. The amount of DNA in each transfection was kept constant by the addition of an appropriate amount of empty expression vector. Whole cell lysates were subjected to Western analysis. Blots were probed with mouse monoclonal antibodies to the Myc epitope tag (upper panel) and GFP (lower panel). FIG. 6C illustrate the pulse-chase analysis of ectopically expressed Myc-tagged β-catenin. […] Immunoprecipitated Myc-β-catenin was subjected to SDS-PAGE and dried gels were analyzed with a PhosphorImager. […]
Cell culture, transfection, reporter assay, co-immunoprecipitation and immmunoblotting. […] Luciferase and β-galactosidase activity was measured 24 hours after transfecton. Tcf/Lef reporter activity was determined as described. […] The whole cell extract (WCE) was immunoprecipitated using a mouse monoclonal antibody specific for the amino-terminus of pAPC (Ab-5, Oncogene Research) or a control mouse IgG, and associated Myc-Siah-1 protein was detected by immunoblotting using an anti-Myc monoclonal antibody (9E10). The pAPC in WCE (20 µg) and immunoprecipitates was detected using an anti-APC mouse monoclonal antibody (Ab-1, Oncogene Research). […]

Compound: COc1cccc2c1C(=O)c1c(O)c3c(c(O)c1C2=O)C[C@@](O)(C(=O)CO)C[C@@H]3O[C@H]1C[C@H](N)[C@H](O)[C@H](C)O1 [adriamycin]
- Tcf/Lef reporter activity (TOP/FOP): decreased Tcf/Lef reporter activity
